One data set relates to BALB/C female mice. Put plainly: In vivo toxicity (serum biochemistry, liver and kidney histology). The settings on record: day 30. How it is done:
(§1) Ethics Committee of the Faculty of Medical Sciences of the University of Kragujevac, Serbia, approved all experiments (01-5301/11). ARRIVE guidelines and EU Directive 2010/63/EU for animal experiments were followed. Experimental animals, BALB/C female mice (8–10 weeks old), were housed under standard conditions (temperature-controlled environment, a 12 h light–dark cycle, fed ad libitum, and observed daily) throughout whole duration of experiment. Animals were inoculated with 4T1 cells (3 × 10^4) into the fourth mammary fat pad as previously described. Animals were randomly assigned to experimental or control groups, and after palpable tumors were detected, the pharmacological treatments were started. Female BALB/C mice intraperitoneally received either C3 (3 mg/kg), C3 (6 mg/kg), CDDP (6 mg/kg), or vehicle in distilled water with 0.05% DMSO (Sigma-Aldrich, St. Louis, MO, USA) (untreated group) in five single doses every third day (8 animals per group). Using electronic calipers (Moore and Wright, Sheffield, UK), the sizes of primary 4T1 mammary tumors were morphometrically evaluated. On the 30th day of experiment, animals were sacrificed, blood was collected (for determination of serum levels of ALT, AST, urea, and creatinine), and tissue sections (liver and kidney) were stained with H&E for further analysis. Liver or kidney sections were analyzed by two observers, and the injury levels were determined as previously reported.

The subject of data set [1] is 4T1 cells. Put plainly: Scratch assay. In kind it is cell-based, mouse. The settings on record: 0.5 µM, after 12 and 24 h, vs untreated. On the procedure: In order to determine migratory capacity of C3-treated 4T1 cells, scratch assay was performed as previously described. Once 4T1 cells formed a confluent monolayer, an injury was made, and first representative images were taken immediately. Further 4T1 cells were exposed to C3 (0.5 µM) or DMEM only (untreated cells), and observation under inverted optical microscope (Olympus, Tokyo, Japan) was made after 4 h, 12 h, and 24 h. Scratch width was quantified by ImageJ (version 1.54.0 NIH, Madison, WI, USA).

The next data set concerns 4T1 mammary tumors. Put plainly: Breast cancer development in vivo (orthotopic 4T1). The conditions noted are these: five single doses every third day, after day 18. On the set-up: species or system BALB/C female mice. On the procedure:
as §1

Data set [2] relates to 4T1 cells. Put plainly: Flow cytometry of apoptosis and proliferation markers. Type of data set: cell-based, mouse. The conditions noted are these: 0.5 µM, 24 h, vs untreated. How it is done:
Flow cytometry was performed on 4T1 cells treated with 0.5 µM of C3 for 24 h or untreated cells. After treatment, cells were incubated with antibodies specific for Bax (Abcam Cambridge, Cambridge, UK), Bcl-2 (Abcam Cambridge, UK), BclXL (Thermo Fisher Scientific, Waltham, MA, USA), MCL-1 (Thermo Fisher Scientific, Waltham, MA, USA) caspase 3 (Abcam Cambridge, UK), Ki-67 (eBioscience, San Diego, CA, USA), cyclin D3 (Abcam Cambridge, UK), p21 (Abcam Cambridge, UK), p16 (Abcam Cambridge, UK), and p27 (Abcam Cambridge, UK) and secondary antibodies as previously described. FACSCalibur Flow Cytometer (BD Biosciences, San Jose, CA, USA) was used for flow cytometry, and the data were analyzed using FlowJo (version 10.7.2; Tree Star Inc. Ashland, OR, USA).
Background: Flow cytometry measures light scatter and fluorescence of single cells or particles in a stream.

The test system of data set [3] is 4T1 cells. In words: Analysis of cell death (Annexin V/PI) in 4T1. In kind it is cell-based, mouse. The conditions noted are these: 0.5 µM, 24 h, vs untreated. How it is done: 4T1 cells were treated with 0.5 µM of C3 or grown in DMEM only (control 4T1 cells) for 24 h and stained with Annexin-V-FITC and propidium iodide (PI) (BD Pharmingen, San Diego, CA, USA) as previously described. Quantification of cellular death was measured using FACSCalibur Flow Cytometer (BD Biosciences, San Jose, CA, USA) and FlowJo software (version 10.7.2; Tree Star Inc. Ashland, OR, USA).

For the next data set, the system named is mouse lung cancer (LLC1). Put plainly: MTT assay LLC1. In kind it is cell-based. On the procedure:
Mouse breast cancer (4T1), human breast cancer (MDA-MB-468), mouse colon cancer (CT26), human colon cancer (HCT-116), mouse lung cancer (LLC1), human lung cancer (A549), mouse mesenchymal stem cells (mMSC), and human fibroblast cell lines (MRC-5) were used in this study and were consistently cultured in complete Dulbecco’s Modified Eagle Medium (DMEM) (Sigma-Aldrich, St. Louis, MO, USA) in incubator (5% CO2) under standard conditions. Complete DMEM was Dulbecco’s Modified Eagle Medium supplemented with 10% fetal bovine serum (FBS), 1 mmol/L penicillin–streptomycin, 1 mmol/L mixed nonessential amino acids, and 2 mmol/L L-glutamine (Sigma-Aldrich, St. Louis, MO, USA). All cancer cell lines and MRC-5 cell line were obtained from American Type Culture Collection (ATCC, Manassas, VA, USA), but mMSC was manufactured by Gibco (Middlesex County, MA, USA).
In 96-well microplates, we seeded cancer and non-cancer cells, more exactly 5 × 10^3 cells per well in 100 μL of complete DMEM (Sigma-Aldrich, St. Louis, MO, USA). […] Tested concentration range for all metal-based substances was 3.9–500 μM. After incubation with MTT solution (5 mg/mL; pH 7.2) for 4 h, optical density was determined using Zenyth 3100 microplate multimode detector (Salzburg, Austria). All experiments were performed three times, each in triplicate, and the IC50 values as well as selectivity indexes (IC50 for mMSC or MRC-5/IC50 for mouse or human cancer cells) were calculated.
On the technique in general: Formazan colour is commonly taken as a measure of viable cells.

The test system of data set [4] is 4T1 cells. In words: Cell cycle distribution. In kind it is cell-based, mouse. The conditions noted are these: 0.5 µM, 24 h. On the procedure:
After reaching optimal confluency, 4T1 cells were allowed to grow in the presence of 0.5 µM of C3 or DMEM only (control 4T1 cells) for next 24 h. According to manufacturer’s recommendation, cells were stained with Vybrant® DyeCycle^TM Ruby stain (Thermo Fisher Scientific, Waltham, MA, USA) in order to perform cell cycle analysis. The analysis was carried out on FACSCalibur Flow Cytometer (BD Biosciences, San Jose, CA, USA), and data were analyzed using FlowJo software (version 10.7.2; Tree Star Inc. Ashland, OR, USA).

Data set [5] relates to 4T1 cells. Put plainly: Mitochondrial membrane potential and ROS levels. Type of data set: cell-based, mouse. The conditions noted are these: 0.5 µM. On the procedure:
After 24 h of C3 treatment, 4T1 cells were stained with appropriate dyes, followed by flow cytometry analysis using FACS Calibur Flow Cytometer (BD Biosciences, San Jose, CA, USA). Mitochondrial membrane potential stained by Rhodamine-123 (Sigma-Aldrich, St. Louis, MO, USA), TMRE (Abcam, Cambridge, UK), and cellular ROS levels were stained by DC-FHDA (Sigma-Aldrich, St. Louis, MO, USA).

A word on the IC50: it is the point on the concentration scale where inhibition reaches its midpoint. High values mean lower potency, low ones higher potency.

For `CCCSc1ccccc1C(=O)[O][Ag].CCCSc1ccccc1C(=O)[O][Ag]` [C3, [Ag2(S-propyl-thiosal)2]], the “kidney injury scores compared to CDDP-treated animals” value in the data set with BALB/C female mice (C3 3 and 6 mg/kg vs CDDP 6 mg/kg) is “significantly lower”. In addition, the “liver injury histological score (Knodel score) vs untreated animals” value in the data set on BALB/C female mice (C3 3 and 6 mg/kg, H&E) is reported as “did not reveal a significant difference”. In addition, the “migration ability of 4T1 cells” value with 4T1 cells [1] is on record as “significantly reduced”. In addition, the “tumor growth compared to the untreated group” value in the data set with 4T1 mammary tumors (3 mg/kg i.p.) is on record as “significantly slower”. The “tumor growth compared to the untreated group” value in the data set on 4T1 mammary tumors (6 mg/kg i.p.) was “significantly slower”. For the same molecule, in the data set with 4T1 cells [2], the Bax/Bcl-2 ratio result is “higher”. Further, in the data set on 4T1 cells [3], the “percentage of early apoptotic cells” value is recorded as “No difference” and the “percentage of late apoptotic 4T1 cells (AnnV+/PI+)” value is reported as “increased”. The half-maximal inhibitory concentration (IC50) in the data set with mouse lung cancer (LLC1) (LLC1, 24 h) was found to be 41.6 ± 1.27 µM. Also, in the data set on mouse lung cancer (LLC1) (LLC1, 48 h), the half-maximal inhibitory concentration (IC50) came to 20.3 ± 1.18 µM and the “Selectivity Index (IC50 mMSC or MRC-5/ IC50 Cancer Cell)” value is recorded as 0.21. In addition, in the data set with 4T1 cells [4], the “percentage of 4T1 cells in G0/G1 phase” value is “significantly increased” and the “percentage of 4T1 cells in S phase” value was “decreased”. For the same molecule, the “TMRE fluorescence (mitochondrial membrane potential)” value in the data set on 4T1 cells [5] was “significant decrease”. The “level of intracellular ROS” value in the data set on 4T1 cells [5] (24 h incubation) is given as “increased”.

For the origin of these results see article PMC12567082, “Silver(I) Complexes Bearing S-Alkyl Thiosalicylic Acid Derivatives: DNA/BSA Binding and Antitumor Activity In Vitro and In Vivo” (Pharmaceutics, 2025).
